Experimental findings from article PMC12304301, “The Drosophila DEG/ENaC PPK12 is a Na^+ leak channel with a low Na^+ affinity” (Scientific Reports, 2025) are described below.

Experiment [1] deals with T1, PPK12 (Drosophila melanogaster, UniProt Q9W250).
T1 construct: cRNA expressed alone in Xenopus laevis oocytes; DEG/ENaC family members are trimers
T1 sequence (Q9W250 1-569): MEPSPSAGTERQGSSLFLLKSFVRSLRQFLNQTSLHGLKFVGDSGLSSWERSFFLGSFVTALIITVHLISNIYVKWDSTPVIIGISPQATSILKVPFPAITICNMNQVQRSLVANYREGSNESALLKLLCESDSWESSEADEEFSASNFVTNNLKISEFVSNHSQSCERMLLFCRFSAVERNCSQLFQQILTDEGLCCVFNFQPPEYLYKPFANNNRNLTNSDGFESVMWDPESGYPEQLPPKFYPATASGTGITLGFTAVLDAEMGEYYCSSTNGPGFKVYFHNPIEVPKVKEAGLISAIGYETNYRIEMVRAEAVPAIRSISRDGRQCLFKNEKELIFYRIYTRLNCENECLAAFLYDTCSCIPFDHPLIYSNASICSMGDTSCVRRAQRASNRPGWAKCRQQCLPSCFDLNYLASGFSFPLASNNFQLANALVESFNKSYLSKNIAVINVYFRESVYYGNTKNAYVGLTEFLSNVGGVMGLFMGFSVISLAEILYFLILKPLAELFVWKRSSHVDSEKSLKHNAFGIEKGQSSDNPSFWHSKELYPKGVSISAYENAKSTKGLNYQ
Nature of the experiment: two-electrode voltage clamp of Xenopus oocytes, block of NMDG-sensitive constitutive current. The class given is cell-based.

The target in experiment [2] is T1, PPK12. Nature of the experiment: two-electrode voltage clamp of Xenopus oocytes, inhibition of total constitutive current. The conditions noted are these: 140 mM NaCl bath, pH 7.4, -70 mV; only part of current carried by PPK12. The class given is cell-based.

In turn, `N=C(N)c1ccc(/N=N/Nc2ccc(C(=N)N)cc2)cc1` [diminazene] came in with an IC50 in experiment [1] of 110 ± 10 µM. With `NC(=NC(=O)c1nc(Cl)c(N)nc1N)NCc1ccccc1` [benzamil], the “% inhibition at 100 μM” value in experiment [2] was “amiloride, its analog benzamil, and diminazene–partially and reversibly inhibited constitutive currents in PPK12-expressing oocytes”. Take `N=C(N)NC(=O)c1nc(Cl)c(N)nc1N` [amiloride]: the concentration for half-maximal inhibition (IC50) in experiment [1] worked out at 220 ± 20 µM.
